Test results as given in the supplement of paper PMC11451515.

Test system: SEM cells
Assay: cell viability relative to DMSO control; higher = less cytotoxic
Settings: 48 h
Outline: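 Viability is a per-plate percentage relative to DMSO wells, with cell-free wells as background. CellTiter-Glo One luminescence was read after 48 h at 37°C on 1536-well plates (5 μl) of NOMO1 or SEM (500 cells/well) or P12-Ichikawa (1000 cells/well) leukemia cells. The cells had been adapted for at least four passages in each medium and pin-dosed with library compounds in DMSO from 47 μM to 0.79 nM in 11 threefold steps.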

[1] = HPLM + 10% dialyzed FBS, 0.000781 µM
[2] = HPLM + 10% dialyzed FBS, 0.00234 µM
[3] = HPLM + 10% dialyzed FBS, 0.00702 µM
[4] = HPLM + 10% dialyzed FBS, 0.0211 µM
[5] = HPLM + 10% dialyzed FBS, 0.0632 µM
[6] = HPLM + 10% dialyzed FBS, 0.19 µM
[7] = HPLM + 10% dialyzed FBS, 0.569 µM
[8] = HPLM + 10% dialyzed FBS, 1.71 µM
[9] = HPLM + 10% dialyzed FBS, 5.12 µM
[10] = HPLM + 10% dialyzed FBS, 15.4 µM
[11] = HPLM + 10% dialyzed FBS, 46.1 µM
[12] = RPMI 5 mM glucose + 10% FBS, 0.000781 µM
[13] = RPMI 5 mM glucose + 10% FBS, 0.00234 µM
[14] = RPMI 5 mM glucose + 10% FBS, 0.00702 µM
[15] = RPMI 5 mM glucose + 10% FBS, 0.0211 µM
[16] = RPMI 5 mM glucose + 10% FBS, 0.0632 µM
[17] = RPMI 5 mM glucose + 10% FBS, 0.19 µM
[18] = RPMI 5 mM glucose + 10% FBS, 0.569 µM
[19] = RPMI 5 mM glucose + 10% FBS, 1.71 µM
[20] = RPMI 5 mM glucose + 10% FBS, 5.12 µM
[21] = RPMI 5 mM glucose + 10% FBS, 15.4 µM
[22] = RPMI 5 mM glucose + 10% FBS, 46.1 µM
[23] = RPMI 5 mM glucose + 10% dialyzed FBS, 0.000781 µM
[24] = RPMI 5 mM glucose + 10% dialyzed FBS, 0.00234 µM
[25] = RPMI 5 mM glucose + 10% dialyzed FBS, 0.00702 µM
[26] = RPMI 5 mM glucose + 10% dialyzed FBS, 0.0211 µM
[27] = RPMI 5 mM glucose + 10% dialyzed FBS, 0.0632 µM
[28] = RPMI 5 mM glucose + 10% dialyzed FBS, 0.19 µM
[29] = RPMI 5 mM glucose + 10% dialyzed FBS, 0.569 µM
[30] = RPMI 5 mM glucose + 10% dialyzed FBS, 1.71 µM
[31] = RPMI 5 mM glucose + 10% dialyzed FBS, 5.12 µM
[32] = RPMI 5 mM glucose + 10% dialyzed FBS, 15.4 µM
[33] = RPMI 5 mM glucose + 10% dialyzed FBS, 46.1 µM

Row | SMILES | cell viability [1] [%] | cell viability [2] [%] | cell viability [3] [%] | cell viability [4] [%] | cell viability [5] [%] | cell viability [6] [%] | cell viability [7] [%] | cell viability [8] [%] | cell viability [9] [%] | cell viability [10] [%] | cell viability [11] [%] | cell viability [12] [%] | cell viability [13] [%] | cell viability [14] [%] | cell viability [15] [%] | cell viability [16] [%] | cell viability [17] [%] | cell viability [18] [%] | cell viability [19] [%] | cell viability [20] [%] | cell viability [21] [%] | cell viability [22] [%] | cell viability [23] [%] | cell viability [24] [%] | cell viability [25] [%] | cell viability [26] [%] | cell viability [27] [%] | cell viability [28] [%] | cell viability [29] [%] | cell viability [30] [%] | cell viability [31] [%] | cell viability [32] [%] | cell viability [33] [%]
1 | Cc1noc(-c2ccc(CSCCC(=O)O)cc2)c1NC(=O)OC(C)c1ccccc1Cl (stereo unspecified) | 95.3 | 95.1 | 99.2 | 89.3 | 88.4 | 97 | 99.7 | 89.3 | 97.1 | 98.7 | 95.6 | 99.9 | 98.8 | 82.5 | 94.5 | 83.9 | 100 | 96.2 | 70.3 | 101 | 89.7 | 81.3 | 90 | 108 | 104 | 115 | 97 | 115 | 101 | 69.3 | 117 | 114 | 88.3
2 | C[C@@H](O)[C@@H]1NC(=O)[C@H](CCCCN)NC(=O)[C@@H](Cc2c[nH]c3ccccc23)NC(=O)[C@H](Cc2ccccc2)NC(=O)[C@@H](NC(=O)[C@H](N)Cc2ccccc2)CSSC[C@@H](C(=O)N[C@H](CO)[C@@H](C)O)NC1=O | 71.3 | 83.6 | 87.8 | 91 | 99 | 78.3 | 83.4 | 91.2 | 97.5 | 97.7 | 84.6 | 67.4 | 94.4 | 83.2 | 105 | 90.6 | 55.5 | 82.6 | 91.6 | 101 | 90.4 | 70.4 | 64.8 | 81 | 84.5 | 86.1 | 78.7 | 75.1 | 81.7 | 74.7 | 97.1 | 85.6 | 67.3
3 | OC[C@H]1O[C@@H](Oc2cc(O)cc(/C=C/c3ccc(O)cc3)c2)[C@H](O)[C@@H](O)[C@@H]1O | 71.9 | 89.5 | 97.3 | 105 | 101 | 108 | 108 | 108 | 95.4 | 116 | 115 | 79.3 | 102 | 89.7 | 104 | 97.4 | 110 | 85.7 | 102 | 117 | 119 | 104 | 86.2 | 104 | 94 | 102 | 93.2 | 104 | 102 | 119 | 114 | 117 | 114
4 | Cc1cccc(/C=N/Nc2cc(N3CCOCC3)nc(OCCc3ccccn3)n2)c1 | 99.3 | 93.8 | 102 | 100 | 111 | 87 | 104 | 72.8 | 82.7 | 52.9 | 31.8 | 97.8 | 98.9 | 106 | 109 | 105 | 96.1 | 95.4 | 85.9 | 66.9 | 34.9 | 13.4 | 104 | 100 | 101 | 96.8 | 90.3 | 81.3 | 70.8 | 73.8 | 54.9 | 35.3 | 7.57
5 | CCOC(=O)\C1=C\[C@@H](OC(CC)CC)[C@H](NC(C)=O)[C@@H](N)C1 | 73.2 | 82.3 | 95.9 | 97.5 | 77.9 | 102 | 91.4 | 70.8 | 101 | 96.8 | 56 | 77.6 | 85.1 | 93.3 | 99.1 | 85 | 92.7 | 96.8 | 78.8 | 88.8 | 111 | 89.3 | 75.6 | 82.7 | 92.3 | 84.9 | 75.5 | 98.2 | 102 | 73.7 | 97.7 | 104 | 68.3
6 | CN(C)C1=C(Br)C=C(C=C1)C\2NC3=C(\C4=C2C(=O)CC(C)(C)C4)C5=CC=CC=C5C=C3 (stereo unspecified) | 113 | 119 | 125 | 130 | 131 | 131 | 113 | 120 | 128 | 120 | 97.8 | 105 | 115 | 137 | 121 | 132 | 123 | 107 | 131 | 116 | 109 | 100 | 93.1 | 112 | 122 | 128 | 127 | 127 | 93.1 | 114 | 126 | 118 | 85.4
7 | CC(C)(C)[C@H](NC(=O)c1ccc(N)c(Cl)c1)C(=O)N1CCC[C@H]1C(=O)N[C@H](C#N)CC(=O)O | 99.5 | 105 | 109 | 129 | 127 | 125 | 113 | 113 | 123 | 140 | 130 | 107 | 107 | 129 | 118 | 118 | 124 | 115 | 120 | 100 | 134 | 110 | 116 | 101 | 117 | 111 | 117 | 116 | 117 | 118 | 117 | 123 | 125
